Experimental data taken from US10334829B2, “IMiD screening methods IMiD-sensitive cells with mutant CRBN” (THE BROAD INSTITUTE, INC., priority 2013, dated 2019).
“Also recorded” adds a separate entry of the source. Residues, ends and D or L forms follow the SMILES beside them. *: point of attachment. Cbz = O=C(OCc1ccccc1)*

Experiments:
[1] = biological target: T1, CSNK1A1 (Homo sapiens, UniProt P48729+Q96SW2); test: Immunoblot of CSNK1A1 (CK1α) protein in human cell lines; format: cell-based; settings: KG-1 cells, 6 hours
T1 construct: endogenous in cells; host or cells: KG-1
T1 sequence (P48729 whole entry): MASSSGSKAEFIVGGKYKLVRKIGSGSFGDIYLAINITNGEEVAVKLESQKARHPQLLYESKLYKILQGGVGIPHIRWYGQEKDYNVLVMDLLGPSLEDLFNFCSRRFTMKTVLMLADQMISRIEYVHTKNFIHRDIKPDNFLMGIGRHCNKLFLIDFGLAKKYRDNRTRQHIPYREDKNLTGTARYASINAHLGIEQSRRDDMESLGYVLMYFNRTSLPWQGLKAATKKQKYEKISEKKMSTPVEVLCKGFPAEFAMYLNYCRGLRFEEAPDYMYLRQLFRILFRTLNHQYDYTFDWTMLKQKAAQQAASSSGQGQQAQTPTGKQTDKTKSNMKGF
T1 sequence (Q96SW2 whole entry): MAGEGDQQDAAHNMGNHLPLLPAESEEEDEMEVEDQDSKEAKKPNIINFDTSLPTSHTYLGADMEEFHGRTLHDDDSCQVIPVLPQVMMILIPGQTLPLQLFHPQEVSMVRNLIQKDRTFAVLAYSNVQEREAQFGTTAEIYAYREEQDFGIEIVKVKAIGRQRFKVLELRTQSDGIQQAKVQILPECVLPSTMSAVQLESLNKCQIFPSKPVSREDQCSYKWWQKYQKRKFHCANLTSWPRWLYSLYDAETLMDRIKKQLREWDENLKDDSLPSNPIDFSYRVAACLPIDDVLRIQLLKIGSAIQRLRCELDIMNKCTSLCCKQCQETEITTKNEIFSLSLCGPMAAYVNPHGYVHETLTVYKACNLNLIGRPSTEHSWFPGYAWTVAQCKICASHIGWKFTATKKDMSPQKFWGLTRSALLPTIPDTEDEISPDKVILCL
T1 sequence (Q16531 whole entry partner): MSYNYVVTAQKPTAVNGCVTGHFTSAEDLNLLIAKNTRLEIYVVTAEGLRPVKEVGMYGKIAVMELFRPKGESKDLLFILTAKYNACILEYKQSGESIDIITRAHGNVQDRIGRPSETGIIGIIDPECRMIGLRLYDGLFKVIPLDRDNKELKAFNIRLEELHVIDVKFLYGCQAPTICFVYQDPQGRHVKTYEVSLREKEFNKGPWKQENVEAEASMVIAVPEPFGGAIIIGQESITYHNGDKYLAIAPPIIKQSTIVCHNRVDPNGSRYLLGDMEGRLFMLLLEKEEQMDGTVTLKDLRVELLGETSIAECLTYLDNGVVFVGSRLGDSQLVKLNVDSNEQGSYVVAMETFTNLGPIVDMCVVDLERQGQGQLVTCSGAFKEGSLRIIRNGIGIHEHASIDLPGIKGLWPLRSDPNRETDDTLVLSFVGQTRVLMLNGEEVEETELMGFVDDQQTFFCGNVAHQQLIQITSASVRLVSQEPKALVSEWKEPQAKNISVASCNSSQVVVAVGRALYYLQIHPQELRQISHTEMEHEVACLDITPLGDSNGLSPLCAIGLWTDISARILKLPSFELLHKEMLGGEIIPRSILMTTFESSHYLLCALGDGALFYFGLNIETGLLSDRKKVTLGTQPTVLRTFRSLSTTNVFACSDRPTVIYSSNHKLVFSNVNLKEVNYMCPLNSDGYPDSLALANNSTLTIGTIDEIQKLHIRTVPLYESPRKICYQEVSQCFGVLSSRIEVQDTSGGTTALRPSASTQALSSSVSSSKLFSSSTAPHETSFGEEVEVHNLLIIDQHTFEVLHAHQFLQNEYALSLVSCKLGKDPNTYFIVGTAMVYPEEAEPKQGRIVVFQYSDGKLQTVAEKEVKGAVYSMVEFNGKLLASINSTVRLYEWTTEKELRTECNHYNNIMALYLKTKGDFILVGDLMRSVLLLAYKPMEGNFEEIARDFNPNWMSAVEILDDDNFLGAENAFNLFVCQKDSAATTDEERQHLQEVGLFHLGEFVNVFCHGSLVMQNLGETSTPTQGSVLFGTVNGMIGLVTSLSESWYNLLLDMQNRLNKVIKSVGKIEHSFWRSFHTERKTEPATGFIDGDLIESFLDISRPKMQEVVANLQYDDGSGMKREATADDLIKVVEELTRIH
Protocol: Protein lysates were run on Tris-HCl, 1 mm Criterion™ Precast gels (Bio-Rad) or NuPAGE Bis-Tris gels (Novex) gels at a constant voltage. Proteins were transferred onto Immobilon-P transfer membranes (Millipore) at a constant amperage. Before staining with primary antibodies, blots were blocked in 5% non-fat dry milk (Santa Cruz) or BSA in TBST for 30 minutes.
Secondary antibodies were HRP conjugated Bovine anti-Goat (Jackson ImmunoResearch) and HRP conjugated donkey anti-rabbit (GE Healthcare). Supersignal chemi-luminescent substrate was used for detection. For re-probing, blots were stripped in Restore Western Blot Stripping Buffer (Thermo Scientific), activated in methanol, and re-blocked.

[2] = system: IKZF1 and IKZF3; test: ORF-firefly luciferase reporter assay in 293T cells; format: cell-based, human; settings: 1 μM MLN-4924
[3] = system: IKZF1 and IKZF3; test: Immunoblot of IKZF1 and IKZF3 protein in multiple myeloma cells; format: cell-based, human
Protocol: The FK2 antibody detects covalently linked ubiquitin.
Protein lysates were run on Tris-HCl, 1 mm Criterion™ Precast gels (Bio-Rad) at a constant voltage. Proteins were transferred onto Imobilon-P transfer membranes (Millipore) at a constant amperage. Before staining, blots were blocked in 5% BSA in TBST for 30 minutes.

[4] = system: MM1S cells; test: CellTiter-Glo luminescent cell viability assay; format: cell-based, human; settings: MM1S (sensitive) versus K562 (insensitive) cells, 6 days
Protocol: FIGS. 2A, 2B-1, 2B-2 and 2C are provided. […] For a biological replicate SILAC labeling for the two conditions was switched.
On the respective days, total cellular ATP content was assessed using CellTiter-Glo® Luminescent Cell Viability Assay (Promega) according to the protocol. Luminescence was assessed by a multimode detector DTX880 (Beckman Coulter).

[5] = system: CSNK1A1; test: RQ-PCR of CSNK1A1 mRNA in human cells; format: cell-based
Protocol: Relative expression levels were calculated using the ΔΔCT method.

[6] = system: CSNK1A1; test: Immunoblot of CSNK1A1 in murine Baf3 and primary murine AML cells, with or without expressed CRBN variants; format: cell-based, mouse
Protocol: CSNK1A1 protein levels were assessed by immunoblot. […] Non-conserved amino acids are indicated by red bars.
Variants of human and mouse CRBN were cloned into a modified pRSF91 backbone to generate SFFV-CRBN-IRES-GFP-T2A-Puro retroviral constructs. 200,000 Ba/F3 cells were infected with ecotropic retrovirus in the presence of 2 μg/ml polybrene. After 24 hours, 1 μg/ml puromycin (Gibco) was added and cells were selected for 3-4 days. […] Protein lysates were harvested and immunoblotted for CK1α as described above.

[7] = biological target: T2, CBR1 (Homo sapiens, UniProt P16152); test: CBR1 biochemical assays
T2 sequence (P16152 1-277): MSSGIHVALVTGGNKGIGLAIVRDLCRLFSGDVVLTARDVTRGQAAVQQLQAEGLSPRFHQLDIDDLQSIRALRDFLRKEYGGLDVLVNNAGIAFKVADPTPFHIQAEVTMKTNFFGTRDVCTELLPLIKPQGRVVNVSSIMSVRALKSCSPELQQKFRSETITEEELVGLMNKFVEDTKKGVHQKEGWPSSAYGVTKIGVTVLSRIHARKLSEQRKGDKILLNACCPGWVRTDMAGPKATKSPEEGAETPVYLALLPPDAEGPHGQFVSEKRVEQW

[8] = system: IRF4; test: IRF4 protein and mRNA levels in MM1S cells; format: cell-based, human
Source text: FIG. 14E is a graph showing IRF4 RNA expression levels after IKZF3 knockdown.

[9] = system: IKZF3; test: Immunoblot of IKZF3 in T cells isolated from mCRBN^I391V knock-in or wild type mice; format: cell-based, mouse; settings: 0, 1 or 10 μM
Source text: IKZF3 protein levels was detected by immunoblot (IB). Actin was included as a protein loading control.

[10] = biological target: T3, RAB28 (Homo sapiens, UniProt P51157); test: ORF-firefly luciferase reporter assay in 293T cells; format: cell-based; settings: 1 μM lenalidomide, 24 hours
T3 construct: expressed in transfected cells; host or cells: 293T
Protocol: The cDNAs of candidate genes, fused to firefly luciferase (FFluc), were expressed in 293T cells.
The luciferase reporter plasmid CMV-IRES-RenillaLUC-IRES-Gateway-FireflyLUC (11) was a kind gift from William G. Kaelin (Dana-Farber Cancer Institute). Cloning of cDNAs was performed using Gateway LR reaction (invitrogen). […] After an additional 24 hours, dual luciferase assays were performed using the Dual-Glo Luciferase Assay System (Promega) according to the manufacturer's protocol.

Question: Which “Effect on lenalidomide-induced decrease in CSNK1A1 protein levels” value [1] does the source give for `CC(C)C[C@@H](C=O)NC(=O)[C@H](CC(C)C)NC(=O)[C@H](CC(C)C)NC(=O)OCc1ccccc1` [MG132] (Cbz-Leu-Leu-Leu-aldehyde) here?
Answer: The value was “abrogated”.

Question: Which results are given for `NS(=O)(=O)OC[C@@H]1C[C@@H](n2ccc3c(N[C@H]4CCc5ccccc54)ncnc32)C[C@@H]1O` [MLN-4924]?
Answer: Effect on lenalidomide-induced decrease of FFluc-fused IKZF3 [2]: prevented the lenalidomide-induced decrease; Effect on lenalidomide-induced decrease in CSNK1A1 protein levels [1]: abrogated; Effect on lenalidomide-induced decrease of endogenous IKZF1 and IKZF3 ([3]; MM cells, 1 μM MLN-4924): prevented the lenalidomide-induced decrease

Question: `CCCCNC(=O)CCCNc1cccc2c1CN(C1CCC(=O)NC1=O)C2=O` (stereo not drawn) [lenalidomide derivative, N-butyl-4-((2-(2,6-dioxopiperidin-3-yl)-1-oxoisoindolin-4-yl)amino)butanamide] was tested. Which “Biological activity / growth inhibition compared with lenalidomide” value [4] did it give?
Answer: Its value is “retained the biological activity of lenalidomide, including selective growth inhibition of multiple myeloma cells”.

Question: What does the source list for `Nc1cccc2c1CN(C1CCC(=O)NC1=O)C2=O` (stereo not drawn) [lenalidomide]?
Answer: CSNK1A1 mRNA / RNA expression [5]: No significant change; also recorded: did not alter CSNK1A1 mRNA levels; CSNK1A1 degradation in Baf3 cells expressing mCRBN^I391V [6]: conferred sensitivity to lenalidomide-induced degradation of CSNK1A1; CSNK1A1 protein levels in murine cells over-expressing human CRBN [6]: sufficient to confer lenalidomide sensitivity to CSNK1A1; also recorded: reduced CSNK1A1 levels; also recorded: resulted in a decrease of CSNK1A1 protein levels; CSNK1A1 protein levels in murine Baf3 cells or primary murine (MLL-AF9) leukemia cells ([6]; unmodified cells, 24 hours): No change; also recorded: did not decrease Csnk1a1 protein levels; Inhibition of CBR1 [7]: did not interact with CBR1 in direct binding assays or inhibit CBR1; IRF4 levels in proteomic analysis ([8]; 12 hours): only slightly decreased; IRF4 mRNA and protein ([8]; 24 hours and longer): decreased expression of IRF4; also recorded: significant decrease of IRF4 mRNA and protein; IKZF3 degradation in T cells from wild type mice [9]: No IKZF3 degradation was observed; Luciferase level of FFluc fused to RAB28 [10]: not altered; Degradation of IKZF1 and IKZF3 with CRBN mutant that does not bind lenalidomide [3]: abrogated degradation of IKZF1 and IKZF3
